We go through 3 compounds from US20230201275A1 (priority 2020, published 2023).

The test system of test [1] is hilA. Type of test: cell-based, Salmonella Typhimurium.
Another test addresses wild type HilD (Salmonella typhimurium, UniProt P0CL08). Type of test: cell-based. Particulars: 20 μM, wild type HilD strain.
Another test has as its target HilD mutant K293A (Salmonella typhimurium, UniProt P0CL08, K293A). The class given is cell-based. Particulars: 20 μM.
For a further test, the target named is HilD mutant K294A (Salmonella typhimurium, UniProt P0CL08, K294A). The class given is cell-based. The settings on record: 20 μM.
Test [2] concerns Salmonella SPI1 expression (sicA-GFP). Type of test: in vivo, mice.
The target in test [3] is T1, HilD (Salmonella typhimurium, UniProt P0CL08). Type of test: cell-based. The settings on record: lon mutant.
The subject of test [4] is hilA. Type of test: cell-based, Salmonella. Particulars: absence of lon, 20 μM.
The target of test [5] is T1, HilD. Type of test: binding.
In another test the target is HilC (Salmonella typhimurium, UniProt P0CL09). Type of test: binding.
Another test deals with RtsA. The class given is binding, Salmonella.

Structures are written as SMILES. “Also recorded” adds a separate entry of the source. Where two headings read alike, the source gives them in different places.

Chain of HilD mutant K294A (P0CL08 whole entry K294A, looked up): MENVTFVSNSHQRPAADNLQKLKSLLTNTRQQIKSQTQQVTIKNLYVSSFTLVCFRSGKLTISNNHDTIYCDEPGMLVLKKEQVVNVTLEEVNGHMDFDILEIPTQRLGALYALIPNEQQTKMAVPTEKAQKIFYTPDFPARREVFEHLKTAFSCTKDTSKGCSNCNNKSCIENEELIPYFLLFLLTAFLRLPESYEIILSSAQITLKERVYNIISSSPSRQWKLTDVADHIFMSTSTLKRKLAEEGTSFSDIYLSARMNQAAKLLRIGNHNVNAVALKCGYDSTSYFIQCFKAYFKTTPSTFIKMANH
Chain of wild type HilD (P0CL08 whole entry): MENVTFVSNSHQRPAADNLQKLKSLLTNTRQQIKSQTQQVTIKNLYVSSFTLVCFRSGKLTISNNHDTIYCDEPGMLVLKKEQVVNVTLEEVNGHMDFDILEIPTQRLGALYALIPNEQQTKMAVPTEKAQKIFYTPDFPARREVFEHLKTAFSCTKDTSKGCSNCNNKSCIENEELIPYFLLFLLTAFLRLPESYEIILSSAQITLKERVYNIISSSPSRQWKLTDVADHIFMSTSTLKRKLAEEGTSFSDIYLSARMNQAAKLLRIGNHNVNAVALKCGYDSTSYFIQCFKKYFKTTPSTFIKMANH
T1 sequence (P0CL08 whole entry): as above
Chain of HilD mutant K293A (P0CL08 whole entry K293A, looked up): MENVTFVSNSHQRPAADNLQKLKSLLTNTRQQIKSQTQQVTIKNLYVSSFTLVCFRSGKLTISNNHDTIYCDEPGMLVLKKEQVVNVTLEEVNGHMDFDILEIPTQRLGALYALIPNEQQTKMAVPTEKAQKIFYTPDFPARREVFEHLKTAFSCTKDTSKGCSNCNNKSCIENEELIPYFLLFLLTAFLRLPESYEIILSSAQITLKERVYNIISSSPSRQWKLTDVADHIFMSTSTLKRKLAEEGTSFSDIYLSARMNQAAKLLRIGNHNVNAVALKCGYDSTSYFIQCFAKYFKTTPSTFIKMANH
Chain of HilC (P0CL09 whole entry): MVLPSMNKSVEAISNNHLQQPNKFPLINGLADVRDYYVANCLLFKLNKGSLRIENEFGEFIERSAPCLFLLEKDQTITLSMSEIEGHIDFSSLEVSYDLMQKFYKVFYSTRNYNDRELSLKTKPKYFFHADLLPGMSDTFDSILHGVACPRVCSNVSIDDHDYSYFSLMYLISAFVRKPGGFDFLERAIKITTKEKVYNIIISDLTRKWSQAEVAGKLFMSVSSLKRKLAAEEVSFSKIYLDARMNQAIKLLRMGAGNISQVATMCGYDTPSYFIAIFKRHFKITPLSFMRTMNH

For the compound `CCCCCCCCC/C=C\C(=O)O` [2-cis-dodecenoic acid, (Z)-dodec-2-enoic acid], the “hilA (invasion gene) expression” value in the test with hilA [1] was “reduced expression to a lesser degree”. Moreover, the “reduction of sipB expression” value at wild type HilD is given as 4.1 fold; on HilD mutant K293A, “no significant reduction”; on HilD mutant K294A, “no significant reduction”.

Consider `CCCCCCCCCCCCC/C=C\C(=O)O` [2-cis-hexadecenoic acid, (Z)-hexadec-2-enoic acid], for which, in the test on hilA [1], the “hilA (invasion gene) expression” value is reported as “reduced expression to a lesser degree”. Also, in test [2] (mice n=5/group, P<0.01 vs control), the “percentage of Salmonella expressing SPI in the gut” value is listed as “reduces the percentage”. Further, in [2] (mice, 1.5 mM in drinking water, hilD UTR A25G strain), the “reduction of percentage of bacteria expressing an invasion gene in the caecum” value was determined as 2 fold. Further, the “effect on HilD stability” value on HilD [3] is “no effect”. In the test with hilA [4], the hilA expression entry is reported as “continued to repress”. The “binding of HilD to hilA promoter” value at HilD [5] (20 μM, 10 nM DNA, 150 μM protein) is “prevented the binding”; on HilD [5] (20 μM, 10 nM DNA, 150 μM protein, listed as cis-2-hexadecenoic acid), “completely inhibited from binding”; at HilD [5] (1, 2, 5 and 10 μM), “partially inhibited binding”; at HilD [5] (1, 2, 5 and 10 μM, listed as cis-2-hexadecenoic acid) it was “did so partially”. In addition, the “binding of HilC to hilA promoter” value on HilC (100 μM) is “preventing binding”; on HilC (100 μM, listed as cis-2-hexadecenoic acid), “prevented binding”; at HilC (10, 25, 50 and 75 μM), “partially inhibited binding”; at HilC (10, 25, 50 and 75 μM, listed as cis-2-hexadecenoic acid) it was “did so partially”. The “binding of RtsA to hilA promoter” value in the test on RtsA is listed as “preventing binding; also recorded: partially inhibited binding; also recorded: prevented binding; also recorded: did so partially”. In addition, the “reduction of sipB expression” value at wild type HilD is listed as roughly 11 fold; on HilD mutant K293A it was “No significant repression”; at HilD mutant K294A it was “No significant repression”.

On to `CCCCCCCCCCCCC/C=C/C(=O)O` [2-trans-hexadecenoic acid, reference compound], for which the figures for the “reduction of sipB expression” value on wild type HilD, on HilD mutant K293A and on HilD mutant K294A were 5.2 fold, 4.7 fold and 4.5 fold, respectively.
